The test system of this experiment is Plasmodium berghei. Briefly: Luciferase/luciferin-expressing antifolate-resistant parasites were used to infect a culture of HepG2 cells that were pre-incubated with compounds. Infected hepatocytes emit light due to the luciferase reaction. Assay results are presented as the percent inhibition of light emission compared to control. […]. The class given is functional. As to conditions: sporozoite; for IC90: read-out: LUCIFERASE INFECTION ASSAY - IC90.

Where [1] appears, read: read-out: LUCIFERASE INFECTION ASSAY - IC50.

The IC50 is the concentration that inhibits the measured activity by half. What is called IC90 is the concentration at which the effect reaches the 90% level.

Molecules are shown by their SMILES.

As to `CS(=O)(=O)c1ccc(S(=O)(=O)Oc2ccc(C3CCCCC3)cc2)cc1`, the IC90 was greater than 10 µM. The 50% inhibitory concentration (IC50) (HEPG2TOX_HILL_SLOPE 0.47, HEPG2TOX_R_SQUARED 0.776, PBLUC_HILL_SLOPE 1, PBLUC_R_SQUARED 0.337, read-out: LUCIFERASE INFECTION ASSAY - IC50) came to 6.62 µM.
As to `Cc1c(-c2ccccc2)sc(N)c1C#N`, the IC90 is greater than 15.4 µM. For the setting “HEPG2TOX_HILL_SLOPE 1.71, HEPG2TOX_R_SQUARED 0.831, PBLUC_HILL_SLOPE 15.7, PBLUC_R_SQUARED 0.066, read-out: LUCIFERASE INFECTION ASSAY - IC50”, the IC50 came out at 14.9 µM.
On to `Cc1cccc(OCCN(C)Cc2cc(=O)n3c([nH]c4ccccc43)c2C#N)c1`, for which the concentration for an effect of 90% (IC90) worked out at 7.03 µM. In addition, the 50% inhibitory concentration (IC50) (HEPG2TOX_HILL_SLOPE 0.204, HEPG2TOX_R_SQUARED 0.162, PBLUC_HILL_SLOPE 2.87, PBLUC_R_SQUARED 0.544, read-out: LUCIFERASE INFECTION ASSAY - IC50) was determined as 3.27 µM.
Take `Cc1ccc2nc(NC(=O)c3ccc(Cl)cc3)c(C(=O)NCC(C)C)n2c1`: the IC90 was 2.91 µM. Further, the IC50 under setting [1] amounted to 2.76 µM.
Consider `CNc1nc2cnc(Nc3ccc(OC(F)(F)F)cc3)cc2n1Cc1ccccc1`, for which the IC90 came to 5.21 µM. In addition, the IC50 (HEPG2TOX_HILL_SLOPE 3.1, HEPG2TOX_R_SQUARED 0.978, PBLUC_HILL_SLOPE 7.5, PBLUC_R_SQUARED 0.303, read-out: LUCIFERASE INFECTION ASSAY - IC50) was found to be 3.88 µM.
`CN(C)c1cccc(-c2cnc3sc(NCCCO)nn23)c1`: the IC90 is greater than 10.4 µM. The 50% inhibitory concentration (IC50) under setting [1] was greater than 10.4 µM.
Consider `CCn1c(-c2ccccc2)c(C(=O)Cn2ncc(Cl)c(Cl)c2=O)c2ccccc21`, for which the IC90 was greater than 10 µM. For the same compound, where the note is “FFLUC_HILL_SLOPE 22, FFLUC_R_SQUARED 0.674, read-out: LUCIFERASE INFECTION ASSAY - IC50”, the IC50 was greater than 10 µM.
Turning to `Cc1cc(OCC(=O)/N=c2/sccn2C)c(C(C)C)cc1Cl`, the IC90 was greater than 10 µM. Moreover, the IC50 under setting [1] is greater than 10 µM.
For `Cc1ccc(S(=O)(=O)c2ccc(NNS(=O)(=O)c3cccc([N+](=O)[O-])c3)cc2)cc1`, the IC90 is greater than 10 µM. For the same compound, the IC50 under setting [1] was greater than 10 µM.
For the compound `CCOC(=O)/C(=C\c1cccc(F)c1)C1=Nn2c(nnc2-c2ccc(OC)cc2)SC1`, the IC90 is 6.43 µM. Besides, the IC50 (HEPG2TOX_HILL_SLOPE 19.5, HEPG2TOX_R_SQUARED 0.849, PBLUC_HILL_SLOPE 122, PBLUC_R_SQUARED 0.536, read-out: LUCIFERASE INFECTION ASSAY - IC50) came out at 6.31 µM.
For the compound `Cc1ccccc1-c1ccc(CN2CCC3(CC2)C(=O)N(C)C(=O)N3CC(C)C)cc1`, the IC90 was determined as 3.99 µM. Also, under “HEPG2TOX_HILL_SLOPE 1.94, HEPG2TOX_R_SQUARED 0.943, PBLUC_HILL_SLOPE 7.56, PBLUC_R_SQUARED 0.512, read-out: LUCIFERASE INFECTION ASSAY - IC50”, the IC50 worked out at 2.99 µM.
With `COc1cc(NC(=S)Nc2ccc(Cl)cc2)cc(C(F)(F)F)c1`, the concentration for an effect of 90% (IC90) was greater than 9.15 µM. Besides, under setting [1], the IC50 is greater than 9.15 µM.
Take `Cc1ccc2nc(Cn3cc(C(F)(F)F)cc(Cl)c3=O)cn2c1`: the IC90 is greater than 10 µM. Moreover, the half-inhibitory concentration (IC50) under setting [1] was greater than 10 µM.
Consider `COc1ccc(Nc2ccn3ncc(-c4ccc(N(C)C)cc4)c3n2)cn1`, for which the IC90 amounted to 5.31 µM. Where the note is “HEPG2TOX_HILL_SLOPE 7.66, HEPG2TOX_R_SQUARED 0.327, PBLUC_HILL_SLOPE 65.7, PBLUC_R_SQUARED 0.275, read-out: LUCIFERASE INFECTION ASSAY - IC50”, the IC50 is 5.14 µM.
With `O=C(O)Cc1c(-c2ccc3c(c2)OCCO3)nc2ccc([N+](=O)[O-])cc2c1-c1ccccc1`, the IC90 amounted to 8.54 µM. The IC50 (HEPG2TOX_HILL_SLOPE 0.567, HEPG2TOX_R_SQUARED 0.724, PBLUC_HILL_SLOPE 1.12, 2.95, PBLUC_R_SQUARED 0.872, 0.627, read-out: LUCIFERASE INFECTION ASSAY - IC50) came to 3.34 µM.
Turning to `COCCOc1ccc(C(F)(F)F)cc1NC(=O)c1ccc2ncsc2c1`, the IC90 was greater than 10 µM. For the same compound, where the note is “PBLUC_HILL_SLOPE 1.17, PBLUC_R_SQUARED 0.0937, read-out: LUCIFERASE INFECTION ASSAY - IC50”, the IC50 was 8.48 µM.
With `O=C(NCCO)c1cccc(-c2ccc3ncc(-c4cccc(O)c4)n3n2)c1`, the IC90 turned out to be 9.64 µM. For the same compound, the IC50 (HEPG2TOX_HILL_SLOPE 14.1, HEPG2TOX_R_SQUARED 0.658, PBLUC_HILL_SLOPE 25.2, PBLUC_R_SQUARED 0.24, read-out: LUCIFERASE INFECTION ASSAY - IC50) worked out at 8.83 µM.
Take `O=S(=O)(Nc1cc(F)c(Br)cc1F)c1cc(C(F)(F)F)cc(C(F)(F)F)c1`: the IC90 is greater than 6.82 µM. The IC50 (HEPG2TOX_HILL_SLOPE 2.19, HEPG2TOX_R_SQUARED 0.933, PBLUC_HILL_SLOPE 2.47, PBLUC_R_SQUARED 0.245, read-out: LUCIFERASE INFECTION ASSAY - IC50) worked out at 2.98 µM.
For `Cc1ccccc1-c1ccc(CN2CCc3c(c(C(=O)NCc4ccccc4)nn3CCO)C2)cc1`, the IC90 is 2.98 µM. Further, the IC50 (PBLUC_HILL_SLOPE 9.2, PBLUC_R_SQUARED 0.549, read-out: LUCIFERASE INFECTION ASSAY - IC50) was found to be 2.35 µM.
Turning to `O=C(Nc1ccc(SC(F)(F)F)cc1)Nc1ccc(Oc2cccc(C(F)(F)F)c2)nc1`, the IC90 stood at 0.806 µM. Further, where the note is “HEPG2TOX_HILL_SLOPE 4.03, HEPG2TOX_R_SQUARED 0.946, PBLUC_HILL_SLOPE 9.59, PBLUC_R_SQUARED 0.631, read-out: LUCIFERASE INFECTION ASSAY - IC50”, the IC50 was 0.641 µM.
On to `Cc1nc(C(=O)N2CCc3c(c(C(=O)NC4CCCC4)nn3CC(C)C)C2)cs1`, for which the IC90 was 2.9 µM. The IC50 (PBLUC_HILL_SLOPE 2.42, PBLUC_R_SQUARED 0.681, read-out: LUCIFERASE INFECTION ASSAY - IC50) is 1.17 µM.
As to `CSc1sc(Cl)c(-c2ccc(Cl)cc2)c1C#N`, the IC90 is greater than 11 µM. In addition, the IC50 under setting [1] was greater than 11 µM.
For `C=CCn1c2ccccc2c2ccccc21`, the 90% effect concentration (IC90) was greater than 15.9 µM. For the setting “FFLUC_HILL_SLOPE 10.4, FFLUC_R_SQUARED 0.117, read-out: LUCIFERASE INFECTION ASSAY - IC50”, the IC50 was greater than 15.9 µM.
Consider `CCOc1ccc(C(=O)NNC(=O)c2cc(Cl)ccc2O)cc1`, for which the IC90 was greater than 10 µM. For the same compound, the IC50 (HEPG2TOX_HILL_SLOPE 1.98, HEPG2TOX_R_SQUARED 0.918, PBLUC_HILL_SLOPE 3.04, PBLUC_R_SQUARED 0.138, read-out: LUCIFERASE INFECTION ASSAY - IC50) worked out at 7.76 µM.
Take `COc1ccc(-c2cnc3ccc(NCc4ccc5c(c4)OCO5)nn23)cc1`: the IC90 was found to be 1.36 µM. For the same compound, the IC50 under setting [1] was 0.746 µM.
The like results for `Cc1ccc(-n2c(C)nnc2SCCCc2nc(-c3ccccc3)no2)cc1` were, in that order, greater than 10 µM and greater than 10 µM.
As for `CS(=O)(=O)Nc1cccc(-c2cnc3sc(NCCOc4ccccc4)nn23)c1`, the concentration for an effect of 90% (IC90) was greater than 7.68 µM. Besides, where the note is “PBLUC_HILL_SLOPE 4.91, PBLUC_R_SQUARED 0.558, read-out: LUCIFERASE INFECTION ASSAY - IC50”, the IC50 turned out to be 5.02 µM.
Regarding `Cc1nc2ccccc2c(C)c1CC(=O)NCc1coc(-c2cccs2)n1`, the IC90 is greater than 10 µM. The IC50 under setting [1] was greater than 10 µM.
Take `Cc1ccccc1-c1cn2c(-c3ccc(CO)cc3)cnc2cn1`: the IC90 worked out at 10.4 µM. Moreover, the IC50 (HEPG2TOX_HILL_SLOPE 0.675, HEPG2TOX_R_SQUARED 0.753, PBLUC_HILL_SLOPE 1.37, PBLUC_R_SQUARED 0.689, read-out: LUCIFERASE INFECTION ASSAY - IC50) worked out at 2.1 µM.
`O=C(CN1CCC(Nc2ncnc3cc(Cl)ccc23)CC1)Nc1ccccc1`: the IC90 was 5.83 µM. For the setting “HEPG2TOX_HILL_SLOPE 1.03, HEPG2TOX_R_SQUARED 0.872, PBLUC_HILL_SLOPE 1.97, PBLUC_R_SQUARED 0.801, read-out: LUCIFERASE INFECTION ASSAY - IC50”, the half-inhibitory concentration (IC50) is 1.91 µM.
For the compound `OCc1ccc(-c2ccc3ncc(-c4cccnc4)n3n2)cc1`, the IC90 amounted to 1.91 µM. Also, the IC50 (HEPG2TOX_HILL_SLOPE 8.03, HEPG2TOX_R_SQUARED 0.878, PBLUC_HILL_SLOPE 5.07, PBLUC_R_SQUARED 0.745, read-out: LUCIFERASE INFECTION ASSAY - IC50) turned out to be 1.24 µM.
Consider `Cc1ccc2c(c1)/C(=N/Nc1nc3ccccc3s1)C(=O)N2`, for which the IC90 was 4.93 µM. Also, for the setting “HEPG2TOX_HILL_SLOPE 7.15, HEPG2TOX_R_SQUARED 0.815, PBLUC_HILL_SLOPE 8.39, PBLUC_R_SQUARED 0.507, read-out: LUCIFERASE INFECTION ASSAY - IC50”, the IC50 worked out at 3.79 µM.
As for `CCOc1cc(/C=C/C(=O)c2ccc(F)c(Br)c2)cc(Cl)c1OCC(=O)N(C)C`, the IC90 is greater than 10 µM. In addition, the IC50 under setting [1] is greater than 10 µM.
Take `O=C(Nc1ccc(I)cc1)C1CCN(C(=O)c2ccncc2)CC1`: the IC90 was 2.8 µM. For the same compound, under “HEPG2TOX_HILL_SLOPE 1.42, HEPG2TOX_R_SQUARED 0.857, PBLUC_HILL_SLOPE 1.13, PBLUC_R_SQUARED 0.975, read-out: LUCIFERASE INFECTION ASSAY - IC50”, the IC50 was found to be 0.403 µM.
Consider `COc1ccc(Nc2cc(C)nc(-n3nc(C)cc3C)n2)cc1`, for which the IC90 amounted to 4.19 µM. Besides, where the note is “HEPG2TOX_HILL_SLOPE 0.695, HEPG2TOX_R_SQUARED 0.68, PBLUC_HILL_SLOPE 2.57, PBLUC_R_SQUARED 0.661, read-out: LUCIFERASE INFECTION ASSAY - IC50”, the IC50 was determined as 1.78 µM.
As to `CC(C)(C)c1ccc(C(=O)Nc2ccc(C(F)(F)F)cc2)s1`, the IC90 was found to be 4.36 µM. Under setting [1], the IC50 was found to be 0.561 µM.
Regarding `O=C(NCCO)c1cccc(-c2ccc3ncc(-c4ccc5c(c4)OCO5)n3n2)c1`, the IC90 stood at 3.86 µM. Also, the IC50 (HEPG2TOX_HILL_SLOPE 1.62, HEPG2TOX_R_SQUARED 0.792, PBLUC_HILL_SLOPE 12.2, PBLUC_R_SQUARED 0.362, read-out: LUCIFERASE INFECTION ASSAY - IC50) is 3.22 µM.

(Values after ChEMBL document CHEMBL4483862, “Open-source discovery of chemical leads for next-generation chemoprotective antimalarials” (2018).)
